This is an account of results in ChEMBL document CHEMBL4622880, “Anti-inflammatory Activity of Absinthin and Derivatives in Human Bronchoepithelial Cells” (J Nat Prod, 2020).

Active and inactive are the calls of the source. The calls are words filed in the database; no cut-off is given here.

Series [1] addresses T1, Taste receptor type 2 member 46 (Homo sapiens) (UniProt P59540).
T1 sequence (whole entry): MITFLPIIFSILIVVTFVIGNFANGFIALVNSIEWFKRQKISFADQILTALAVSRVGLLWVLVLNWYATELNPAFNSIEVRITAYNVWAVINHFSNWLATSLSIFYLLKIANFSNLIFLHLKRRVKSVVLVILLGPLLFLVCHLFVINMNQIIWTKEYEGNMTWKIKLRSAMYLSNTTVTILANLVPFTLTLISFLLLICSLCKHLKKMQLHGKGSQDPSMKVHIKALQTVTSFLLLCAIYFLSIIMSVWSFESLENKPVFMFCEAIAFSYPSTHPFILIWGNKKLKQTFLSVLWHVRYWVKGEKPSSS
Put plainly: Agonist activity at human TAS2R46 expressed in human BEAS2B cells assessed as increase in cytosolic calcium level at 1 mM by Fluo-2-AM dye based fluorescence assay. Type of series: functional, cell-based.

Series [2] deals with T1, Taste receptor type 2 member 46 (Homo sapiens). Put plainly: Agonist activity at human TAS2R46 expressed in human BEAS2B cells assessed as increase in cytosolic calcium level at 1 mM in presence of […] antagonist 3HDC by Fluo-2-AM dye based fluorescence assay. It counts as functional, cell-based.
Series [3] concerns BEAS-2B. Put plainly: Effect on basal superoxide anion production in human BEAS2B cells expressing human TAS2R46 at 1 uM after 1 hr by cytochrome C reduction assay. It counts as ADME, cell-based.
The target in series [4] is T1, Taste receptor type 2 member 46 (Homo sapiens). Put plainly: Agonist activity at human TAS2R46 expressed in human BEAS2B cells assessed as antiinflammatory activity by measuring reduction in PMA-induced superoxide anion generation at 1 uM preincubated for 1 hr followed by PMA addition and measured after 30 mins by cytochrome C reduction assay. It counts as cell-based.

Series [5] shares this target. Put plainly: Agonist activity at human TAS2R46 expressed in human BEAS2B cells assessed as antioxidant activity by measuring reduction in PMA-induced superoxide anion generation at 1 uM preincubated for 1 hr followed by PMA addition and measured after 30 mins in presence of 1 uM TAS2R46 antagonist 3HDC by cytochrome C reduction assay. Type of series: cell-based.
For series [6] the target is unchanged. Put plainly: Agonist activity at human TAS2R46 expressed in human BEAS2B cells assessed as antiinflammatory activity by measuring reduction in PMA-induced iNOS protein level at 1 uM incubated for 18 hrs by TRITC-phalloidin/DAPI staining based analysis. Type of series: cell-based.
For series [7] the target is unchanged. Put plainly: Agonist activity at human TAS2R46 expressed in human BEAS2B cells assessed as antiinflammatory activity by measuring reduction in PMA-induced iNOS mRNA level at 1 uM incubated for 18 hrs by qRT-PCR analysis. It counts as cell-based. (In general: In qPCR the cycle at which signal appears reflects the starting amount.)
The target is the same in series [8]. Put plainly: Agonist activity at human TAS2R46 expressed in human BEAS2B cells assessed as antiinflammatory activity by measuring reduction in PMA-induced MUC5AC expression at 1 uM incubated for 18 hrs by TRITC-phalloidin/DAPI staining based analysis. It counts as cell-based.
For series [9] the target is unchanged. Put plainly: Agonist activity at human TAS2R46 expressed in human BEAS2B cells assessed as antiinflammatory activity by measuring reduction in PMA-induced IL-1beta gene expression at 1 uM incubated for 18 hrs by qRT-PCR analysis. It counts as cell-based.
The target is the same in series [10]. Put plainly: Agonist activity at human TAS2R46 expressed in human BEAS2B cells assessed as antiinflammatory activity by measuring reduction in PMA-induced IL-1beta gene expression at 1 uM incubated for 18 hrs in presence of 1 uM TAS2R46 antagonist 3HDC by qRT-PCR analysis. It counts as cell-based.
The target is the same in series [11]. Put plainly: Agonist activity at human TAS2R46 expressed in PMA-induced human BEAS2B cells assessed as antiinflammatory activity by measuring increase in IL-4 gene expression at 1 uM incubated for 18 hrs by qRT-PCR analysis. It counts as cell-based.
The target is the same in series [12]. Put plainly: Agonist activity at human TAS2R46 expressed in PMA-induced human BEAS2B cells assessed as antiinflammatory activity by measuring increase in IL-10 gene expression at 1 uM incubated for 18 hrs by qRT-PCR analysis. Type of series: cell-based.
The target is the same in series [13]. Put plainly: Agonist activity at human TAS2R46 expressed in PMA-induced human BEAS2B cells assessed as antiinflammatory activity by measuring increase in IL-4 gene expression at 1 uM incubated for 18 hrs in presence of 1 uM TAS2R46 antagonist 3HDC by qRT-PCR analysis. Type of series: cell-based.
Series [14] has the same target. Put plainly: Agonist activity at human TAS2R46 expressed in PMA-induced human BEAS2B cells assessed as antiinflammatory activity by measuring increase in IL-10 gene expression at 1 uM incubated for 18 hrs in presence of 1 uM TAS2R46 antagonist 3HDC by qRT-PCR analysis. It counts as cell-based.
Series [15] has the same target. Put plainly: Agonist activity at human TAS2R46 expressed in human BEAS2B cells assessed as increase in cytosolic calcium level at 1 mM in presence of 100 uM TAS2R46 antagonist 3HDC by Fluo-2-AM dye based fluorescence assay. Type of series: functional, cell-based.
Series [16] has the same target. Put plainly: Agonist activity at human TAS2R46 expressed in human BEAS2B cells assessed as antiinflammatory activity by measuring reduction in PMA-induced iNOS mRNA level at 10 uM incubated for 18 hrs by qRT-PCR analysis. Type of series: cell-based.
For series [17] the target is unchanged. Put plainly: Agonist activity at human TAS2R46 expressed in human BEAS2B cells assessed as effect on cytosolic calcium level at microM concentration by Fluo-2-AM dye based fluorescence assay. Type of series: functional, cell-based.
Series [18] has as its system BEAS-2B. Put plainly: Effect on basal superoxide anion production in human BEAS2B cells expressing human TAS2R46 at 10 uM after 1 hr by cytochrome C reduction assay. It counts as ADME, cell-based.
For series [19], the target named is T1, Taste receptor type 2 member 46 (Homo sapiens). Put plainly: Agonist activity at human TAS2R46 expressed in human BEAS2B cells assessed as antioxidant activity by measuring reduction in PMA-induced superoxide anion generation at 10 uM preincubated for 1 hr followed by PMA addition and measured after 30 mins by cytochrome C reduction assay. Type of series: cell-based.

The target is the same in series [20]. Put plainly: Agonist activity at human TAS2R46 expressed in human BEAS2B cells assessed as antioxidant activity by measuring reduction in PMA-induced superoxide anion generation at 10 uM preincubated for 1 hr followed by PMA addition and measured after 30 mins in presence of 1 uM TAS2R46 antagonist 3HDC by cytochrome C reduction assay. It counts as cell-based.

Series [21] shares this target. Put plainly: Agonist activity at human TAS2R46 expressed in human BEAS2B cells assessed as antiinflammatory activity by measuring reduction in PMA-induced iNOS protein level at 10 uM incubated for 18 hrs by TRITC-phalloidin/DAPI staining based analysis. Type of series: cell-based.
The target is the same in series [22]. Put plainly: Agonist activity at human TAS2R46 expressed in human BEAS2B cells assessed as antiinflammatory activity by measuring reduction in PMA-induced MUC5AC gene expression at 1 to 10 uM incubated for 18 hrs by qRT-PCR analysis. It counts as cell-based.
Series [23] shares this target. Put plainly: Agonist activity at human TAS2R46 expressed in human BEAS2B cells assessed as antiinflammatory activity by measuring reduction in PMA-induced IL-1beta gene expression at 10 uM incubated for 18 hrs by qRT-PCR analysis. It counts as cell-based.
The target is the same in series [24]. Put plainly: Agonist activity at human TAS2R46 expressed in human BEAS2B cells assessed as antiinflammatory activity by measuring reduction in PMA-induced IL-1beta gene expression at 10 uM incubated for 18 hrs in presence of 1 uM TAS2R46 antagonist 3HDC by qRT-PCR analysis. Type of series: cell-based.
For series [25] the target is unchanged. Put plainly: Agonist activity at human TAS2R46 expressed in PMA-induced human BEAS2B cells assessed as antiinflammatory activity by measuring increase in IL-4 gene expression at 10 uM incubated for 18 hrs by qRT-PCR analysis. It counts as cell-based.
Series [26] shares this target. Put plainly: Agonist activity at human TAS2R46 expressed in PMA-induced human BEAS2B cells assessed as antiinflammatory activity by measuring increase in IL-10 gene expression at 10 uM incubated for 18 hrs by qRT-PCR analysis. It counts as cell-based.

Take `COC(=O)[C@@H](C)C1=CC2=C(C)[C@H]3[C@H]([C@@H]4CC5(C)O[C@@]6(C)CC[C@H]7[C@H](C)C(=O)O[C@@H]7C35[C@@H]46)[C@H]2[C@@](C)(O)CC1`: the outcome in series [1], in series [4], in [6], in [7], in [8] and in series [9] was Active. Also, the result in series [10], in series [11] and in [12] was Active. For the same compound, the result in series [2], in series [5], in [13] and in series [14] was inactive. The Activity result in the series with BEAS-2B [3] is listed as “Non-Toxic”.

For `CC1=C2C=C([C@H](C)C(=O)OCCc3ccccc3)CC[C@](C)(O)[C@@H]2[C@H]2[C@@H]3CC4(C)O[C@@]5(C)CC[C@H]6[C@H](C)C(=O)O[C@@H]6C4([C@@H]35)[C@@H]12`, the result in series [1], in [4], in series [6], in series [7], in series [8] and in series [9] was Active. Besides, the outcome in series [10] was Active. Also, the outcome in series [15], in [5], in series [11] and in [12] was inactive. Also, the Activity result in the series on BEAS-2B [3] was “Non-Toxic”.

For the compound `CC1=C2C=C(C(C)NC(=O)N=[N+]=[N-])CC[C@](C)(O)[C@@H]2[C@H]2[C@@H]3CC4(C)O[C@@]5(C)CC[C@H]6[C@H](C)C(=O)O[C@@H]6C4([C@@H]35)[C@@H]12` (stereo not given in full), the result in series [1], in series [15], in series [2], in series [4], in series [6] and in series [8] was Active. Also, the result in series [9] and in series [10] was Active. The Activity entry in the series with BEAS-2B [3] is recorded as “Non-Toxic”. Also, the result in series [5], in [7], in [11] and in series [12] was inactive.

On to `CC1=C[C@@H]2[C@H]3[C@H](C(C)=C4[C@H]5OC(=O)[C@@H](C)[C@@H]5CC[C@](C)(O)[C@@H]43)[C@@]13[C@@H]2[C@@](C)(O)CC[C@H]1[C@H](C)C(=O)O[C@@H]13`, for which the outcome in series [16], in series [1], in [4], in series [19], in series [21] and in series [8] was Active. Besides, the outcome in [22], in series [9] and in series [23] was Active. Also, the outcome in series [17], in series [15], in series [5], in [20], in series [10] and in series [24] was inactive. Further, the result in series [11], in series [25], in series [12] and in series [26] was inactive. The Activity entry in the series on BEAS-2B [3] and in the series on BEAS-2B [18] was “Non-Toxic” each time.
